{"source": "paper PMC4118284", "about": "(Leukemia, 2012)", "key": {"[1]": {"test": "clinical", "conditions": "human, plasma, intravenous, cycle 1, day 1; for AUC(0-t): AUC (0–24 h); for concentration at 24 h: C24 h"}, "[2]": {"test_system": "FLT3", "conditions": "cited from earlier work"}, "[3]": {"conditions": "Concomitant midostaurin n = 13, cycle 1, day 1"}, "[4]": {"conditions": "Sequential midostaurin n = 13, cycle 1, day 1"}, "[5]": {"conditions": "Mean ± SD, Concomitant midostaurin n = 13"}, "[6]": {"conditions": "Mean ± SD, Sequential midostaurin n = 13"}, "[7]": {"conditions": "Median, Concomitant midostaurin n = 13"}, "[8]": {"conditions": "Median, Sequential midostaurin n = 13"}}, "note": "Read-outs that look alike come from different tables or passages of the source.", "data": [{"molecule": "COc1cccc2c1C(=O)c1c(O)c3c(c(O)c1C2=O)C[C@@](O)(C(C)=O)C[C@@H]3O[C@H]1C[C@H](N)[C@H](O)[C@H](C)O1", "note": "[daunorubicin]", "values": [{"measurement": "CL, Mean ± SD", "setting": "[3]", "result": "269 ± 130", "unit": "L/h/m^2"}, {"measurement": "CL, Median", "setting": "[3]", "result": 283, "unit": "L/h/m^2"}, {"measurement": "Vz, Mean ± SD", "setting": "[3]", "result": "717 ± 266", "unit": "L/m^2"}, {"measurement": "Vz, Median", "setting": "[3]", "result": 694, "unit": "L/m^2"}, {"measurement": "C24 h, Mean ± SD", "setting": "[4]", "result": "0 ± 0", "unit": "ng/mL"}, {"measurement": "CL, Mean ± SD", "setting": "[4]", "result": "330 ± 226", "unit": "L/h/m^2"}, {"measurement": "CL, Median", "setting": "[4]", "result": 270, "unit": "L/h/m^2"}, {"measurement": "Vz, Mean ± SD", "setting": "[4]", "result": "946 ± 696", "unit": "L/m^2"}, {"measurement": "Vz, Median", "setting": "[4]", "result": 775, "unit": "L/m^2"}, {"measurement": "C24 h, Median", "setting": "Sequential midostaurin n = 13, cycle 1, day 1, LLOQ is 5 ng/mL", "result": "LLOQ"}, {"measurement": "Effect of midostaurin on clearance", "setting": "midostaurin 50 mg twice daily", "result": "does not seem to be affected"}, {"measurement": "C24 h, Concomitant/sequential midostaurin", "setting": "ratio, cycle 1, day 1", "result": "17.4/LLOQ"}, {"measurement": "AUC(0-t)", "setting": "[1]; [5]", "result": 373, "unit": "ng·h/mL"}, {"measurement": "AUC(0-t)", "setting": "[1]; [6]", "result": 267, "unit": "ng·h/mL"}, {"measurement": "AUC(0-t)", "setting": "[1]; [7]", "result": 189, "unit": "ng·h/mL"}, {"measurement": "AUC(0-t)", "setting": "[1]; [8]", "result": 159, "unit": "ng·h/mL"}, {"measurement": "concentration at 24 h", "setting": "[1]; [5]", "result": 17.4, "unit": "ng/mL"}, {"measurement": "concentration at 24 h", "setting": "[1]; [7]", "result": 17.4, "unit": "ng/mL"}, {"measurement": "Cmax", "setting": "[1]; [5]", "result": 98, "unit": "ng/mL"}, {"measurement": "Cmax", "setting": "[1]; [6]", "result": 229, "unit": "ng/mL"}, {"measurement": "Cmax", "setting": "[1]; [7]", "result": 89, "unit": "ng/mL"}, {"measurement": "Cmax", "setting": "[1]; [8]", "result": 76, "unit": "ng/mL"}, {"measurement": "Tmax", "setting": "[1]; [5]", "result": 30, "unit": "min"}, {"measurement": "Tmax", "setting": "[1]; [6]", "result": 36, "unit": "min"}, {"measurement": "Tmax", "setting": "[1]; [7]", "result": 30, "unit": "min"}, {"measurement": "Tmax", "setting": "[1]; [8]", "result": 30, "unit": "min"}]}, {"molecule": "Nc1ccn([C@@H]2O[C@H](CO)[C@@H](O)[C@@H]2O)c(=O)n1", "note": "[cytarabine]", "values": [{"measurement": "Pharmacokinetic interaction with midostaurin", "setting": "data not shown", "result": "No interaction"}]}, {"molecule": "CN(C(=O)c1ccccc1)[C@@H]1C[C@H]2O[C@@](C)([C@@H]1O)n1c3ccccc3c3c4c(c5c6ccccc6n2c5c31)C(=O)NC4", "note": "[CGP62221]", "values": [{"measurement": "Inhibition of FLT3 in vitro", "setting": "[2]", "result": "capable of inhibiting FLT3 in vitro"}]}]}
